Test results published in patent US20260015350A1, “AZAQUINAZOLINE PAN-KRAS INHIBITORS” (Mirati Therapeutics, Inc., priority 2022, published 2026).

Tests used:
[1] = system: KRas-mediated phosphorylation of ERK in PSN1 cells; assay: Inhibition of KRas-mediated phosphorylation of ERK (Cisbio HTRF pERK), PSN1 cells; format: cell-based; details: Homo sapiens
Outline: (§1)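 Overnight culture at 37° C./5% CO2 in RPMI containing 10% FBS, seeded 6,000 cells per well, preceded the assay. A covered 4-hour incubation at room temperature followed, then HTRF signal for phosphorylated ERK was measured.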

KRas^G12R = biological target: T1, KRas^G12R (Homo sapiens, UniProt P01116, G12R); assay: KRas binding assay (TR-FRET tracer displacement), KRas G12R
T1 construct: Biotinylated KRas (corresponding to amino acids 1-169, produced at Accelegan Inc.); biotin (biotinylated); purchased Accelegan Inc
T1 sequence (P01116 1-169 isoform P01116-2 G12R): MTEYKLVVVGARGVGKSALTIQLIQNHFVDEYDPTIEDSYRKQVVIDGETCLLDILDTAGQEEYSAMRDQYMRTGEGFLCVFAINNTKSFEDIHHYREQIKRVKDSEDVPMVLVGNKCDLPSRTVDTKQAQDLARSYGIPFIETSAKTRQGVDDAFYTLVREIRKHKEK

[2] = system: KRas-mediated phosphorylation of ERK in MKN1 cells; assay: Inhibition of KRas-mediated phosphorylation of ERK (Cisbio HTRF pERK), MKN1 cells; format: cell-based; details: Homo sapiens, MKN-1
Outline: as §1

[3] = system: KRas-mediated phosphorylation of ERK in A549 cells; assay: Inhibition of KRas-mediated phosphorylation of ERK (Cisbio HTRF pERK), A549 cells; format: cell-based; details: Homo sapiens, HTRF pERK
Outline: (§2)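 6,000 cells/well; cpd 10 uM top, 3-fold x10, 0.8% DMSO final; 3 hr incubation; Min ctrl Trametinib 0.2 uM; lysis 40 min 4° C shaking; d2 + Cryptate Ab mix, 2 hr RT; HTRF read.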

KRas^G12V = biological target: T2, KRas^G12V (Homo sapiens, UniProt P01116, G12V); assay: KRas binding assay (TR-FRET tracer displacement), KRas G12V
T2 construct: Biotinylated KRas (corresponding to amino acids 1-169, produced at Accelegan Inc.); biotin (biotinylated); purchased Accelegan Inc
T2 sequence (P01116 1-169 isoform P01116-2 G12V): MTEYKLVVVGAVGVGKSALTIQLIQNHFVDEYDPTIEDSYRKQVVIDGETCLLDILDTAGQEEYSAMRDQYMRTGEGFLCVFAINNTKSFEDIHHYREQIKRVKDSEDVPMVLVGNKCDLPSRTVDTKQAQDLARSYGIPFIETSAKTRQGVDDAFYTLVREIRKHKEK

[4] = system: KRas-mediated phosphorylation of ERK in H358 cells; assay: Inhibition of KRas-mediated phosphorylation of ERK (Cisbio HTRF pERK), H358 cells; format: cell-based; details: Homo sapiens, NCI-H358, HTRF pERK
Outline: (§3)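 Signal read by HTRF (d2/Cryptate antibody pair, 2 hr room-temperature incubation on lysate). Cells: 6,000 per well, 3 hr compound exposure. Titration: 10 uM highest, 3-fold, 10 points.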

[5] = system: KRas-mediated phosphorylation of ERK in HCT116 cells; assay: Inhibition of KRas-mediated phosphorylation of ERK (Cisbio HTRF pERK), HCT116 cells; format: cell-based; details: Homo sapiens, HCT-116, HTRF pERK
Outline: as §2

[6] = system: KRas-mediated phosphorylation of ERK in AsPC-1 cells; assay: Inhibition of KRas-mediated phosphorylation of ERK (Cisbio HTRF pERK), AsPC-1 cells; format: cell-based; details: Homo sapiens, ASPC1, AsPC-1 cells; HTRF pERK
Outline: as §3

KRas^G12D = biological target: T3, KRas^G12D (Homo sapiens, UniProt P01116, G12D); assay: KRas binding assay (TR-FRET tracer displacement), KRas G12D
T3 construct: Biotinylated KRas (corresponding to amino acids 1-169, produced at Accelegan Inc.); biotin (biotinylated); purchased Accelegan Inc
T3 sequence (P01116 1-169 isoform P01116-2 G12D): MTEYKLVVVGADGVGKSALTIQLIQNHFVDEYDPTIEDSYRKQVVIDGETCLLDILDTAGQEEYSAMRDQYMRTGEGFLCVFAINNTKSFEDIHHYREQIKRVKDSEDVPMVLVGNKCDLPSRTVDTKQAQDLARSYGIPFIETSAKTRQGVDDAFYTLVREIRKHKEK

[7] = system: KRas-mediated phosphorylation of ERK in H727 cells; assay: Inhibition of KRas-mediated phosphorylation of ERK (Cisbio HTRF pERK), H727 cells; format: cell-based; details: Homo sapiens, NCI-H727, H727 cells; HTRF pERK
Outline: as §3

[8] = system: KRas-mediated phosphorylation of ERK in H460 cells; assay: Inhibition of KRas-mediated phosphorylation of ERK (Cisbio HTRF pERK), H460 cells; format: cell-based; details: Homo sapiens, NCI-H460, HTRF pERK
Outline: as §3

Row | SMILES | IC50 [1] | IC50 (KRas^G12R) | IC50 [2] | IC50 [3] | IC50 (KRas^G12V) | IC50 [4] | IC50 [5] | IC50 [6] | IC50 (KRas^G12D) | IC50 [7] | IC50 [8]
1 | CCc1c(F)ccc2cc3[nH]ncc3c(-c3ncc4c(N5C[C@@H]6C[C@H](C5)[C@H](O)C6)nc(OC[C@@]56CCCN5C[C@H](F)C6)nc4c3F)c12 [Example 825, (1R,5R,6R)-3-(7-(5-ethyl-6-fluoro-1H-benzo[f]indazol-4-yl)-8-fluoro-2-(((2R,7aS)-2-fluorotetrahydro-1H-pyrrolizin-7a(5H)-yl)methoxy)pyrido[4,3-d]pyrimidin-4-yl)-3-azabicyclo[3.2.1]octan-6-ol] | 5920 nM | 3 nM | 36 nM | 83 nM | < 2 nM | 50 nM | 369 nM | 180 nM | 6 nM | 56 nM | 98 nM
2 | CCc1c(F)ccc2cc(O)cc(-c3ncc4c(N5CCC[C@@](C)(O)C5)nc(OC[C@@]56CCCN5[C@H](COC)CC6)nc4c3F)c12 [Example 826, (R)-1-(7-(8-ethyl-7-fluoro-3-hydroxynaphthalen-1-yl)-8-fluoro-2-(((3S,7aS)-3-(methoxymethyl)tetrahydro-1H-pyrrolizin-7a(5H)-yl)methoxy)pyrido[4,3-d]pyrimidin-4-yl)-3-methylpiperidin-3-ol] | 2390 nM | < 2 nM | 7 nM | 44 nM | < 2 nM | 9 nM | 74 nM | 12 nM | < 2 nM | 51 nM | 30 nM
3 | CCc1c(F)ccc2cc(O)cc(-c3ncc4c(N5CCC[C@@](C)(O)C5)nc(OCC56CC5CN(C)C6)nc4c3F)c12 (stereo partly drawn) [Example 827, (3R)-1-(7-(8-ethyl-7-fluoro-3-hydroxynaphthalen-1-yl)-8-fluoro-2-((3-methyl-3-azabicyclo[3.1.0]hexan-1-yl)methoxy)pyrido[4,3-d]pyrimidin-4-yl)-3-methylpiperidin-3-ol] | > 10000 nM | 3 nM | 41 nM | 159 nM | < 2 nM | 68 nM | 180 nM | 67 nM | < 2 nM | 242 nM | 92 nM
4 | CCc1c(F)ccc2cc(O)cc(-c3ncc4c(N5CC6CCC(C(N)=O)(C6)C5)nc(OC[C@@]56CCCN5C[C@H](F)C6)nc4c3F)c12 (stereo partly drawn) [Example 834, 3-(7-(8-ethyl-7-fluoro-3-hydroxynaphthalen-1-yl)-8-fluoro-2-(((2R,7aS)-2-fluorotetrahydro-1H-pyrrolizin-7a(5H)-yl)methoxy)pyrido[4,3-d]pyrimidin-4-yl)-3-azabicyclo[3.2.1]octane-1-carboxamide] | > 10000 nM | 5 nM | 87 nM | 2750 nM | 3 nM | 186 nM | 1200 nM | 3450 nM | 8 nM | 1140 nM | 797 nM
5 | C#Cc1c(F)ccc2cc(O)cc(-c3ncc4c(N5CCCC6(CC(O)C6)C5)nc(OC[C@]56CCCN5[C@H](COC(=O)N(C)C)CC6)nc4c3F)c12 (stereo partly drawn) [Example 835, ((3S,7aR)-7a-(((7-(8-ethynyl-7-fluoro-3-hydroxynaphthalen-1-yl)-8-fluoro-4-(2-hydroxy-6-azaspiro[3.5]nonan-6-yl)pyrido[4,3-d]pyrimidin-2-yl)oxy)methyl)hexahydro-1H-pyrrolizin-3-yl)methyl dimethylcarbamate] | 1620 nM | < 2 nM | 20 nM | 192 nM | < 2 nM | 31 nM | 137 nM | 146 nM | 3 nM | 72 nM | 72 nM
